pEC50: −log10 of the molar value.

The pEC50 is −log10 of the EC50, conventionally taken in molar units.

The subject of one experiment is human neutrophils. The experiment is described as follows: Ca2+ mobilization in human neutrophils (FLIPR Calcium 3). The settings on record: Neutrophil, read-out: [Ca2+]i EC50. (In general: A change in cytosolic calcium serves as a functional read-out for many receptors and channels.)
Take `COc1cc(/C=N\NC(=O)c2cccc(C)c2O)ccc1OCc1ccccc1` [Compound 25]: the pEC50 is 6.13. On the same count and under the same terms, the same measure for `COc1ccc(C(=O)N/N=C\c2ccc(N(C)C)cc2)cc1` [Compound 26]: 5.52; for `O=C(N/N=C/c1cc(Br)cc(I)c1O)c1ccc2c(c1)OCCO2` [Compound 27]: 5.10.

The next experiment deals with J774.A1 macrophages. Kind of experiment: TNF-α production in J774.A1 macrophages (ELISA). In kind it is cell-based, murine. Conditions: 50 μM compound, above response to vehicle (DMSO) control; Table 5 numbering; N.A. = inactive. A general note: An ELISA detects its analyte on a solid surface through an enzyme-linked reagent.
For “4-fluoro-benzoic acid [5-(3-trifluoromethyl-phenyl)-2-furyl]methylene-hydrazide [Compound 2]”, the “FI (fold-increase of macrophage TNF-α production)” value turned out to be 60 fold-increase.

Staying with this experiment, now noted: 50 μM, 24 hr.
As for `CSCC[C@H](NC=O)C(=O)N[C@@H](CC(C)C)C(=O)N[C@@H](Cc1ccccc1)C(=O)O` [fMLF, N-formyl-Met-Leu-Phe, reference compound], the “TNF-α production by peptide agonists” value was “failed to induce macrophage TNF-α production”.

Staying with this experiment, now noted: Mus musculus, J774.A1, 24 h, read-out: TNF-α production.
As for `O=C(N/N=C/c1ccc([N+](=O)[O-])o1)c1cccc([N+](=O)[O-])c1` [Compound 23], the fold induction at 50 µM is less than 2.

Staying with this experiment, now noted: Mus musculus, J774.A1, 24 h; 50 μM compound, above response to vehicle (DMSO) control; Table 5 numbering; N.A. = inactive; read-out: FI (fold-increase of macrophage TNF-α production).
`Cc1ccc(-c2ccc(/C=N/NC(=O)c3ccncc3)o2)cc1Cl` [Compound 51]: the fold induction at 50 µM turned out to be 50. Regarding `O=C(N/N=C/c1ccc(-c2cccc(C(F)(F)F)c2)o1)c1ccc(Br)cc1` [Compound 52], the fold induction at 50 µM came out at 35. Take `CN(C)c1ccc(/C=N\NC(=O)c2ccc([N+](=O)[O-])cc2)cc1` [Compound 53]: the fold induction at 50 µM was determined as 25.

With `COc1cc(/C=N\NC(=O)c2ccc3c(c2)OCO3)ccc1OCc1ccccc1` [Compound 54], the fold induction at 50 µM stood at 7. Same read-out and setting: the same measure for `O=C(N/N=C/c1ccc(-c2ccc(Cl)c(Cl)c2)o1)c1ccc2c(c1)OCO2` [Compound 55]: less than 5; for `CCOc1cc(/C=N\NC(=O)c2ccc3c(c2)OCO3)ccc1OC(=O)c1ccc(Br)cc1` [Compound 56]: less than 5; for `COc1ccc(-c2ccc(/C=N/NC(=O)c3ccc([N+](=O)[O-])cc3)o2)cc1Cl` [Compound 57]: less than 5.

On to `O=C(N/N=C/c1cc(Br)c(Br)o1)c1ccc2c(c1)OCO2` [Compound 58], for which the fold induction at 50 µM is less than 5.

Staying with this experiment, now noted: Mus musculus, J774.A1, 24 h; relative fold of activation compared to vehicle (DMSO) control for 50 μM compound; N.A. = no activity was observed; read-out: TNF-α production.
As for `CCOc1cc(/C=N\NC(=O)c2ccc3c(c2)OCO3)ccc1OC(=O)c1ccc(Br)cc1` [Compound 11], the fold induction at 50 µM is less than 5. `O=C(N/N=C/c1cc(Br)cc(Br)c1OC(=O)c1ccccc1)c1ccc2c(c1)OCO2` [Compound 12]: the fold induction at 50 µM was less than 5. Still for that read-out and setting: in the case of `O=C(N/N=C/c1ccc(-c2cccc(C(F)(F)F)c2)o1)c1cccc([N+](=O)[O-])c1` [Compound 13] it was less than 5.

Consider `O=C(N/N=C/c1ccc(-c2ccccc2Cl)o1)c1ccc(Cl)cc1Cl` [Compound 14], for which the fold induction at 50 µM is less than 5. For the compound `O=C(N/N=C/c1ccc(-c2cccc(C(F)(F)F)c2)o1)c1cc(I)ccc1Cl` [Compound 15], the fold induction at 50 µM is less than 5. Still for that read-out and setting: the same measure for `O=C(N/N=C/c1cc(Br)c(Br)o1)c1ccc2c(c1)OCO2` [Compound 16]: less than 5.

`Nc1ccc(C(=O)N/N=C/c2ccc(-c3ccc([N+](=O)[O-])cc3Cl)o2)cc1` [Compound 22]: the fold induction at 50 µM was less than 2. On to `O=C(N/N=C/c1ccc(-c2ccc(Cl)cc2Cl)o1)c1ccc2c(c1)OCO2` [Compound 24], for which the fold induction at 50 µM is less than 2.

The same experiment, now with this note: experimentally determined class.
Turning to “4-fluoro-benzoic acid [5-(3-trifluoromethyl-phenyl)-2-furyl]methylene-hydrazide [Compound 2]”, the “Determined class of macrophage TNF-α inducing activity” value (shortened to “Determined class”) is reported as “Active”. Same read-out and setting: the same measure for `Cc1ccc(-c2ccc(/C=N/NC(=O)c3ccncc3)o2)cc1Cl` [Compound 51]: “Active”; for `O=C(N/N=C/c1ccc(-c2cccc(C(F)(F)F)c2)o1)c1ccc(Br)cc1` [Compound 52]: “Active”. Same read-out and setting: in the case of `CN(C)c1ccc(/C=N\NC(=O)c2ccc([N+](=O)[O-])cc2)cc1` [Compound 53] it was “Active”. `COc1cc(/C=N\NC(=O)c2ccc3c(c2)OCO3)ccc1OCc1ccccc1` [Compound 54]: the “Determined class” value is on record as “Active”. For `O=C(N/N=C/c1ccc(-c2ccc(Cl)c(Cl)c2)o1)c1ccc2c(c1)OCO2` [Compound 55], the “Determined class” value is “Active”. Same read-out and setting: the same measure for `CCOc1cc(/C=N\NC(=O)c2ccc3c(c2)OCO3)ccc1OC(=O)c1ccc(Br)cc1` [Compound 56]: “Active”; for `COc1ccc(-c2ccc(/C=N/NC(=O)c3ccc([N+](=O)[O-])cc3)o2)cc1Cl` [Compound 57]: “Active”; for `O=C(N/N=C/c1cc(Br)c(Br)o1)c1ccc2c(c1)OCO2` [Compound 58]: “Active”. As for `O=C(/C=C/c1ccco1)Oc1cccc(/C=N/NC(=O)c2ccc3c(c2)OCO3)c1` [Compound 59], the “Determined class” value was “NA (inactive derivatives were placed in the nonactive group labeled “NA”)”. Same read-out and setting: in the case of `COc1cc(/C=N\NC(=O)c2cccc(C)c2O)ccc1OCc1ccccc1` [Compound 60] it was “NA (inactive derivatives were placed in the nonactive group labeled “NA”)”. Same read-out and setting: in the case of `COc1ccc(C(=O)N/N=C\c2ccc(N(C)C)cc2)cc1` [Compound 61] it was “NA (inactive derivatives were placed in the nonactive group labeled “NA”)”; in that of `O=C(N/N=C/c1cc(Br)cc(I)c1O)c1ccc2c(c1)OCCO2` [Compound 62], “NA (inactive derivatives were placed in the nonactive group labeled “NA”)”. Regarding `O=C(N/N=C/c1cc(/N=N\c2cccc(C(F)(F)F)c2)ccc1O)c1ccc2c(c1)OCO2` [Compound 63], the “Determined class” value was “NA (inactive derivatives were placed in the nonactive group labeled “NA”)”. On the same count and under the same terms, the same measure for `O=C(N/N=C1\C(=O)N(Cc2cccc3ccccc23)c2ccccc21)c1ccc2c(c1)OCO2` [Compound 64]: “NA (inactive derivatives were placed in the nonactive group labeled “NA”)”; for `O=C(N/N=C/c1cc(Br)c(Br)o1)c1ccc2c(c1)OCCO2` [Compound 65]: “NA (inactive derivatives were placed in the nonactive group labeled “NA”)”; for `CN(C)c1ccc(/C=N\NC(=O)c2cccc(F)c2)cc1` [Compound 66]: “NA (inactive derivatives were placed in the nonactive group labeled “NA”)”. As to `CN(C)c1ccc(/C=N/NC(=O)c2ccc3c(c2)OCO3)cc1` [Compound 67], the “Determined class” value was “NA (inactive derivatives were placed in the nonactive group labeled “NA”)”. The same measure, in the same setting: in the case of `O=C(N/N=C/c1c(O)ccc2ccccc12)c1ccc2c(c1)OCO2` [Compound 68] it was “NA (inactive derivatives were placed in the nonactive group labeled “NA”)”; in that of `COc1ccc(/C=N/NC(=O)c2ccc3c(c2)OCO3)c(OC)c1` [Compound 69], “NA (inactive derivatives were placed in the nonactive group labeled “NA”)”. Same read-out and setting: in the case of `COc1cc(/C=N\NC(=O)c2ccc3c(c2)OCO3)ccc1OC(=O)c1ccco1` [Compound 70] it was “NA (inactive derivatives were placed in the nonactive group labeled “NA”)”; in that of `O=C(/C=C\c1ccco1)Oc1ccc(/C=N\NC(=O)c2ccc3c(c2)OCO3)cc1` [Compound 71], “NA (inactive derivatives were placed in the nonactive group labeled “NA”)”. Take `O=C(O)COc1ccccc1/C=N/NC(=O)c1ccc2c(c1)OCO2` [Compound 72]: the “Determined class” value is “NA (inactive derivatives were placed in the nonactive group labeled “NA”)”.

As to `CN(C)c1ccc(/C=N\NC(=O)c2ccccc2O)cc1` [Compound 73], the “Determined class” value was “NA (inactive derivatives were placed in the nonactive group labeled “NA”)”. Still for that read-out and setting: in the case of `O=C(N/N=C/c1cc(/N=N\c2cccc3ccccc23)ccc1O)c1ccc2c(c1)OCO2` [Compound 74] it was “NA (inactive derivatives were placed in the nonactive group labeled “NA”)”; in that of `C/C(=N\NC(=O)c1ccc2c(c1)OCO2)c1cccc([N+](=O)[O-])c1` [Compound 75], “NA (inactive derivatives were placed in the nonactive group labeled “NA”)”; in that of `CC(C)N1C(=O)/C(=N\NC(=O)c2ccc3c(c2)OCO3)c2ccccc21` [Compound 76], “NA (inactive derivatives were placed in the nonactive group labeled “NA”)”.

As to `CCN1C(=O)/C(=N\NC(=O)c2ccc3c(c2)OCO3)c2ccccc21` [Compound 77], the “Determined class” value was “NA (inactive derivatives were placed in the nonactive group labeled “NA”)”. Still for that read-out and setting: in the case of `COc1ccc(/C(C)=N/NC(=O)c2ccc3c(c2)OCCO3)cc1[N+](=O)[O-]` [Compound 78] it was “NA (inactive derivatives were placed in the nonactive group labeled “NA”)”; in that of `COc1ccc(Cl)cc1/C=N/NC(=O)c1ccc2c(c1)OCCO2` [Compound 79], “NA (inactive derivatives were placed in the nonactive group labeled “NA”)”; in that of `CCOc1ncccc1C(=O)N/N=C/c1ccc([N+](=O)[O-])o1` [Compound 80], “NA (inactive derivatives were placed in the nonactive group labeled “NA”)”. Take `O=C(N/N=C/c1ccco1)c1cccnc1` [Compound 81]: the “Determined class” value is “NA (inactive derivatives were placed in the nonactive group labeled “NA”)”. Same read-out and setting: in the case of `O=C(N/N=C/c1ccc(-c2ccc(Cl)c([N+](=O)[O-])c2)o1)c1ccc2c(c1)OCO2` [Compound 82] it was “NA (inactive derivatives were placed in the nonactive group labeled “NA”)”; in that of `O=C(N/N=C/c1ccc(-c2ccc(Cl)cc2)o1)c1ccncc1` [Compound 83], “NA (inactive derivatives were placed in the nonactive group labeled “NA”)”. For the compound `O=C(N/N=C/c1ccc(-c2ccc(Cl)c(Cl)c2)o1)c1ccncc1` [Compound 84], the “Determined class” value is “NA (inactive derivatives were placed in the nonactive group labeled “NA”)”. Consider `CCc1ccc(C(=O)N/N=C/c2ccc(-c3ccc(C)c(Cl)c3)o2)nc1` [Compound 85], for which the “Determined class” value is “NA (inactive derivatives were placed in the nonactive group labeled “NA”)”. Same read-out and setting: in the case of `O=C(N/N=C/c1ccc(-c2cccc(Br)c2)o1)c1ccccn1` [Compound 86] it was “NA (inactive derivatives were placed in the nonactive group labeled “NA”)”.

For the origin of these results see patent US20100035932A1, “NOVEL FORMYL PEPTIDE RECEPTOR LIKE 1 AGONISTS THAT INDUCE MACROPHAGE TUMOR NECROSIS FACTOR ALPHA AND COMPUTATIONAL STRUCTURE-ACTIVITY RELATIONSHIP ANALYSIS OF THEREOF” (priority 2008, published 2010).
